Values joined by “and” are separate entries in the source; they are usually repeats but may differ in a detail not shown here. Equal values may be shown once. “Also recorded” adds a separate entry of the source.
Key:
human PPARα = molecular target: T1, human PPARα (Homo sapiens, UniProt Q07869); assay: PPAR-GAL4 transactivation assay in transiently transfected CV-1 cells; type: cell-based
T1 construct: expressed in transfected cells; host or cells: CV-1 (monkey kidney) cells, transient transfection
T1 sequence (Q07869 159-468): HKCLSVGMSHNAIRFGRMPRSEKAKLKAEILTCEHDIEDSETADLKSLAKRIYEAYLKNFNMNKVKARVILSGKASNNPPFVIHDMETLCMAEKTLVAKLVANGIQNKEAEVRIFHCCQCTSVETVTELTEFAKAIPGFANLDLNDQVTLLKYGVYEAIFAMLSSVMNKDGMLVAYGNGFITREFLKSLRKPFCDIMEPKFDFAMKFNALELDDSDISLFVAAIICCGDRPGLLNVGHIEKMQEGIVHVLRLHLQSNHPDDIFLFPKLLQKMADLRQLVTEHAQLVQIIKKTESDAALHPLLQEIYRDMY
Experimental: To assess the functional transcriptional activity of these compounds, cell-based assays using chimeric receptor Gal4 DNA-binding domain (DBD)-NR ligand binding domain cotransfection assay (LBDs of PPARα, PPARγ, and PPARδ) were performed. As an initial screen to determine the PPARα activity and selectivity, all compounds were evaluated for in vitro potency and selectivity by transfection testing, using CV-1 cells transfected with human and mouse PPARs. MH100×4 is a luciferase reporter with four copies of a GAL4 UASG response element, where GAL-I refers to the ligand-binding domain of the indicated receptor fused to the C-terminus of the GAL4 DNA-binding domain. Assays were performed using a Biomek automated workstation in which the genes for the nuclear receptor, as well as a plasmid containing a response element upstream of a luciferase cDNA, are transfected into CV-1 cells. Compounds were evaluated for their ability to activate human and mouse PPARs at […] test concentrations. […] The transactivation activity of the series of compounds (DY121-132, 10a-g) toward PPARα was expressed as EC50, which is the concentration of the test compound that affords half-maximum activity, as summarized in Table 1.
Cell-based reporter gene assays Cell based transactivation assays were performed in CV 1 cells as described (Forman, et al.). PPARα activity was assayed with a GAL4 reporter construct and fusion proteins containing the ligand binding domains of human PPARα, human PPARγ and human PPARδ linked to the DNA binding domain of yeast GAL4. Reporter constructs (300 ng/10^5 cells) and cytomegalovirus-driven expression vectors (20-50 ng/10^5 cells) were added as indicated along with CMX-b-gal (500 ng/10^5 cells) as an internal control. Cells were transiently transfected by Lipofectamine as described. Cells were incubated with DNA complexed liposomes for 2 h and subsequently treated for approximately 45 h with phenol red free DMEM FBS containing the indicated compounds. After exposure to ligand, the cells were harvested and assayed for luciferase and β-galactosidase activity. All points were assayed in triplicate and varied by less than 15%. Each experiment was repeated three or more times with similar results. Fold activation is reported.
In vitro binding and transfection studies. As an initial screen to determine the PPARα, PPARγ, and PPARδ activity, all compounds were evaluated for in vitro potency and selectivity by transfection testing, using CV-1 cells transfected with human and mouse PPARs. MH100×4 is a luciferase reporter with four copies of a GAL4 USAG response element, where GAL-I refers to the ligand-binding domain of the indicated receptor fused to the C-terminus of the GAL4 DNA-binding domain. Assays were performed using a Biomek automated workstation in which the gene for the nuclear receptor, as well as a plasmid containing a response element upstream of a luciferase cDNA, are transfected into CV-1 cells. Compounds were evaluated for their ability to activate human PPARs at 1, 2.5, 3, and 5 uM test concentrations.
Compounds were screened for agonist activity towards PPAR-GAL4 chimeric receptors in transiently transfected CV-1 cells as described. EC50 is the concentration of test compound that gave 50% maximum efficacy.

C57Bl/6J female mice = assay: Serum triglyceride and lipid effects in C57Bl/6J female mice; type: in vivo

Question: Which “fold greater PPARα agonistic activity compared to LY518674” value (human PPARα) does the source give for `COc1ccc(Cn2c(CCCc3ccc(OC(C)(C)C(=O)O)cc3)nn(Cc3ccc(C)cc3)c2=O)cc1` [10a, 2-(4-{3-[4-(4-Methoxy-benzyl)-1-(4-methyl-benzyl)-5-oxo-4,5-dihydro-1H[1,2,4]triazol-3-yl]-propyl}-phenoxy)-2-methyl-propionic acid] here?
Answer: The value was 42 fold.

Question: What about the EC50 (human PPARα; PPAR-GAL4 chimeric receptor, CV-1 cells, read-out: EC50(nM) hPPARα) of the same compound?
Answer: Its EC50 is 0.85 nM and 1 nM.

Question: And the “selectivity over PPARγ and PPARδ” value (human PPARα; PPAR-GAL4 transactivation assays)?
Answer: Its value is “excellent selectivity”.

Question: What about the “triglycerides, time course” value (C57Bl/6J female mice; 24 h vs 72 h, wild type and PPARα-knockout mice (FIG. 8)) of the same compound?
Answer: The value was “maintained over 72 h in wild type but not PPARα-knockout mice”.

Question: What about the “triglycerides, chronic treatment” value (C57Bl/6J female mice; 7 day period (FIG. 10)) of the same compound?
Answer: Its value is “suppressed triglycerides over the entire 7 day period”.

Question: What about the “dose-response of triglyceride suppression” value (C57Bl/6J female mice; FIG. 7, listed as DY121) of the same compound?
Answer: Its value is “Dose-response suppression; also recorded: dose-dependent anti-dyslipidemic effects”.

Question: And the “FFA and glycerol time course” value (C57Bl/6J female mice; FIG. 14 and 15)?
Answer: The value was “early increase (lipolytic burst) followed by decline”.

— patent publication US20190077774A1, “PEROXISOME PROLIFERATOR-ACTIVATED RECEPTOR AGONISTS” (City of Hope, priority 2017, published 2019)
